The structures appear in SMILES notation. Calls of active or inactive are those of the source.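 How the source made its calls: active means maximal percent inhibition of the deubiquitinase OTUD3 of at least 30% across the tested doses; inactive means the rest.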

As usually defined, the IC50 is the concentration at which inhibition is half-maximal.

The test has as its target OTU domain-containing protein 3 (Homo sapiens) (UniProt Q5T2D3). Description: Validation of screening hits, potency titration, in vitro enzymatic, OTU domain-containing protein 3 DUB inhibitors (AID 1645868). The note with it: purified OTUD3, ubiquitin-rhodamine cleavage fluorescence, 2 h.

OTU domain-containing protein 3 (Homo sapiens), sequence (Q5T2D3 whole entry, looked up, the tested form may be a part): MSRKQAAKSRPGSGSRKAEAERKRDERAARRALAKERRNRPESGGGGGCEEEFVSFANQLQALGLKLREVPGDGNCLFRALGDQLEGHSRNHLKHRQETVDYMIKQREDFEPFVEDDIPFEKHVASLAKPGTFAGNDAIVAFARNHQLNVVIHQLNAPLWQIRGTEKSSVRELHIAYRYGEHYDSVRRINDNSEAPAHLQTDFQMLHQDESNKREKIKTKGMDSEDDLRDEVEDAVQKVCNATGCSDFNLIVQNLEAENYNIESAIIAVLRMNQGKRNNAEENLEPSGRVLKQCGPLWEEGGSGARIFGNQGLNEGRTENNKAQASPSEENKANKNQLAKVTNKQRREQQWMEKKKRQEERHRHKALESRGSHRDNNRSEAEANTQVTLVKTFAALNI

Turning to `CCCc1c(C(=O)O)c(O[C@H]2O[C@H](C)[C@@H](OC)[C@H](OC)[C@@H]2OC)cc2cc3c(c(O)c12)C(=O)c1c(O)cc(O[C@@H]2O[C@@H](C)[C@H](O[C@H]4O[C@H](C)[C@@H](OC)[C@H](OC)[C@@H]4O)[C@@H](OC)[C@H]2O)cc1C3=O`, the IC50 was > 50 µM (inactive).

As to `O=C(Nc1cccc(-c2noc(C3CCC3)n2)c1)C1CC(=O)N(c2ccccc2)C1` (configuration not stated), the IC50 is 36.9 µM.

`CCCc1nc2sc3c(NC4CCCCC4)ncnc3c2c2c1CCC2`: the IC50 was > 50 µM (inactive).

In the case of `COc1ccc(NC(=O)C2[C@@H]3C(=O)N(C4CCCCC4)C(=O)[C@@H]3[C@H]3c4ccccc4C=CN23)cc1` (some centres not stated), the IC50 is > 50 µM (inactive).

As to `O=C1COc2ccccc2N1Cc1noc(-c2ccccc2)n1`, the IC50 was > 50 µM (inactive).

Consider `O=C(Cn1cnc(-c2noc(-c3ccncc3)n2)c1)N1CCN(c2ccccc2F)CC1`, for which the IC50 is > 50 µM (inactive).

As for `CC(C)(C)c1ccc(C(=O)Nc2ccc(Cn3cncn3)cc2)cc1`, the IC50 was > 50 µM (inactive).

As to `CCCc1nc2c(sc3nc4c(cc32)COC(C)(C)C4)c(=O)n1CC(=O)Nc1ccccc1C`, the IC50 was 30 µM.

`CCN(CC)C(=O)CN1CCCC(c2ncncc2-c2cc(C)no2)C1` (configuration not stated): the IC50 was > 50 µM (inactive).

For the molecule `Cc1ccc2nnc(-c3ccccc3)c(C(=O)N3CCN(c4ccccn4)CC3)c2c1`, the IC50 is > 50 µM (inactive).

Consider `c1ccc(-n2nnc(-c3noc(-c4cccnc4)n3)c2-c2ccncc2)cc1`, for which the 50% inhibitory concentration (IC50) was 24 µM.

With `O=[N+]([O-])c1ccc(N2CCN(c3ncnc4c3[nH]c3ccc(F)cc34)CC2)cc1`, the half-inhibitory concentration (IC50) is 2.45 µM.

As to `Cc1ccc(C)c(-c2cc3c(=O)n(Cc4noc(CN5CCCCC5)n4)ccn3n2)c1`, the IC50 is > 50 µM (inactive).

Turning to `COC(=O)c1ccc(Cn2cnc3ccc(Br)cc3c2=O)o1`, the IC50 is > 50 µM (inactive).

With `CCOc1ccc(NC(=O)CSc2nc3n[nH]c(C)c3c(=N)n2-c2ccc(OC)cc2)cc1`, the IC50 is > 50 µM (inactive).

Take `Cc1nn(Cc2ccccc2)c(C)c1C(=O)NC1CCCc2ccccc21` (configuration not stated): the IC50 was > 50 µM (inactive).

Turning to `COc1cc(NC(=O)c2cc(CN3CCOCC3)on2)cc(OC)c1`, the IC50 was > 50 µM (inactive).

For `CCN1C(SCc2ccccc2F)=NS(=O)(=O)c2ccccc21`, the IC50 was > 50 µM (inactive).

As to `Cn1nc(-c2nc(-c3ccccc3)no2)c2c1CCN(C(=O)C1CCCC1)C2`, the IC50 is > 50 µM (inactive).

Consider `COc1cccc(-c2cc(C(=O)N3CCN(c4ccc(N5CCOCC5)nn4)CC3)[nH]n2)c1`, for which the IC50 is > 50 µM (inactive).

In the case of `COc1ccc(OC)c(NC(=O)CNC(=O)c2cc3c(OC)cccc3[nH]2)c1`, the IC50 was > 50 µM (inactive).

In the case of `COc1ccc(-c2nonc2NC(=O)C(c2ccccc2)c2ccccc2)cc1OC`, the IC50 is > 50 µM (inactive).

On to `COc1ccccc1N1CCN(C(=O)c2ccc3c(c2)N(Cc2cc(C)ccc2C)C(=O)c2ccccc2S3=O)CC1` (configuration not stated), for which the IC50 is > 50 µM (inactive).

In the case of `CC1CCN(c2cc(-n3cnc(C(=O)N4CCCC(C)C4)c3)ncn2)CC1` (configuration not stated), the IC50 is > 50 µM (inactive).

For the molecule `Cc1cc(C2CC(=O)Nc3c2c(C)nn3-c2nc3ccccc3[nH]2)c(C)s1` (configuration not stated), the IC50 was > 50 µM (inactive).

For `Cc1c(C)n(-c2ccccc2)c2ncn(CC(=O)NC(C)c3ccccc3)c(=O)c12` (configuration not stated), the half-maximal inhibitory concentration (IC50) was 21 µM.

On to `COc1cccc(CC(=O)Nc2cc(F)c3nc(N4CCOCC4)ccc3c2)c1`, for which the IC50 was > 50 µM (inactive).

Consider `COc1ccc(CCNC(=O)COc2ncnc3oc(C)c(C)c23)cc1OC`, for which the IC50 was > 50 µM (inactive).

With `O=C(NCc1ccc(-c2nc3cnccc3o2)cc1)c1ccccc1Br`, the IC50 was > 50 µM (inactive).

Turning to `N#Cc1ccc(NC(=O)Nc2cccn(Cc3c(F)cccc3Cl)c2=O)cc1`, the IC50 was > 50 µM (inactive).

Turning to `NC(=O)Cn1c(=O)n(Cc2ccc(C(=O)NC3CCCC3)cc2)c(=O)c2ccccc21`, the IC50 was > 50 µM (inactive).

Consider `COc1cccc2c1C(=O)c1ccc3c(c1C2=O)C(=O)CC(C)(O)C3` (configuration not stated), for which the IC50 was > 50 µM (inactive).

As for `C=C1Nc2ccccc2C(=O)N1c1cccc(NC(=O)c2ccc(C)c(C)c2)c1`, the IC50 is > 50 µM (inactive).

In the case of `CCN(c1ccc(NC(=O)CSc2nnc(-c3ccccc3)n2-c2ccc(OC)c(OC)c2)cc1)C(C)C`, the IC50 is 19.7 µM.

For the molecule `Cc1ccc(C(=O)Nc2ccc3nccnc3c2)cc1`, the IC50 is > 50 µM (inactive).

Consider `COc1cccc2c1NC(=O)C21CCN(C(=O)Nc2cccc(C)c2)CC1`, for which the IC50 is 13.8 µM.

On to `O=S(=O)(c1ccccc1Cl)N1CCN(c2ccc3nnc(-c4ccco4)n3n2)CC1`, for which the IC50 is > 50 µM (inactive).

Consider `Fc1cccc(Cn2cc(-c3noc(-c4ccncc4)n3)nn2)c1`, for which the IC50 was > 50 µM (inactive).

For `O=C(CN1C=NC2=NS(=O)(=O)c3ccccc3N21)Nc1cc(F)ccc1F`, the IC50 is 31.8 µM.

`O=C(Nc1cc(Cl)ccc1-n1cncn1)c1ccc(S(=O)(=O)N2CCCC2)cc1`: the IC50 was > 50 µM (inactive).

As to `COc1ccc(-c2nc(-c3nnn(Cc4ccc(F)cc4)c3C)no2)c(OC)c1`, the half-maximal inhibitory concentration (IC50) was 20.4 µM.

Turning to `O=C(Nc1ccc2c(c1)OCO2)C1CCN(Cc2nc3ccccc3s2)CC1`, the IC50 is > 50 µM (inactive).

Regarding `O=C(Cn1c(=O)n(Cc2ccco2)c(=O)c2ccc(C(=O)NC3CCCC3)cc21)NCc1ccco1`, the IC50 is > 50 µM (inactive).

`CC(C)N1CC2CN(C(=O)c3ccccc3)CCN2Cc2ccccc21` (configuration not stated): the IC50 was > 50 µM (inactive).

Take `COc1ccc(NC(=O)c2ccccc2OCC(=O)Nc2ccccc2C(F)(F)F)c(C)c1`: the IC50 was 29.8 µM.

As to `COc1cccc(-n2c(=O)[nH]c3c(C(N)=O)nc(-c4ccc(OCc5ccccc5)cc4)nc32)c1`, the IC50 is > 50 µM (inactive).

Consider `O=c1c(-c2nc(C3CC3)no2)cccn1Cc1c(F)cccc1Cl`, for which the IC50 was > 50 µM (inactive).

As for `CC(C)Oc1ccc(C(=O)Nc2cccc(S(=O)(=O)N3CCCC3)c2)cc1`, the IC50 is > 50 µM (inactive).

`COc1ccc(CN=C2NS(=O)(=O)C(c3ccc(F)cc3)=C2C)cc1OC`: the IC50 was > 50 µM (inactive).

As to `O=C(NC1(O)C(=O)c2ccccc2C1=O)c1cccc2c1-c1ccccc1C2=O`, the concentration for half-maximal inhibition (IC50) was 35.1 µM.

For `CNc1nc2c(c(=O)n1C)CN(C(=O)Nc1cccc3ccccc13)CC2`, the IC50 is > 50 µM (inactive).

Turning to `CN(C)c1ccc(CCN2CCc3nc4cccnc4cc3C2)cc1`, the IC50 was > 50 µM (inactive).

For `COc1cnc(-c2ccccn2)nc1Sc1ccc(C)cc1`, the IC50 is > 50 µM (inactive).

On to `Cc1ccc(-c2nc(NC(=O)COc3ccc(Cl)cc3)no2)cc1`, for which the IC50 was 20.6 µM.

With `Cc1ccc(Cn2cc(-c3noc(-c4ccc[nH]4)n3)nn2)cc1`, the IC50 is 19.8 µM.

In the case of `Cc1cccc(NC(=O)c2ccn(COc3ccc(F)cc3F)n2)c1C`, the IC50 was > 50 µM (inactive).

`CSc1nccc(-c2ccc(F)cc2)c1C#N`: the IC50 was > 50 µM (inactive).

As to `Cc1nc2cc(C(=O)NCCC3=CCCCC3)ccc2n1-c1cccc(F)c1`, the IC50 was > 50 µM (inactive).

On to `Cc1noc(C)c1S(=O)(=O)Nc1ccc(C(=O)Nc2ccc3c(c2)OCCO3)cc1`, for which the IC50 was > 50 µM (inactive).

In the case of `O=[N+]([O-])c1ccc2c(c1)nc1n2CCN(Cc2ccco2)C1`, the IC50 was > 50 µM (inactive).

For `C=C(NC(=O)C(=C)NC(=O)c1csc(-c2ccc3c(n2)-c2csc(n2)-c2csc(n2)C(C(C)C2CO2)NC(=O)C(Cc2ccc(O)cc2)NC(=O)c2csc(n2)C(C(O)c2ccccc2)NC(=O)c2nc(sc2C)C(CC(N)=O)NC(=O)c2csc-3n2)n1)C(=O)O` (configuration not stated), the IC50 is 43.6 µM.

Consider `CC(c1ccccc1)n1c(-c2ccc(F)cc2)nc2c(c(=O)c3ccccc3n2C)c1=O` (configuration not stated), for which the IC50 is 4.65 µM.

For `Cc1nc2sc(C(=O)Nc3ccccc3Br)c(N)c2c(C)c1C`, the IC50 was 15.5 µM.

As for `COc1cccc(-n2cnc3cc(C(=O)NC4CC4)ccc3c2=O)c1`, the IC50 was > 50 µM (inactive).

Regarding `O=C(COC(=O)c1cc(Cl)c2c(c1)OCO2)Nc1ccc2[nH]c(=O)[nH]c2c1`, the IC50 was > 50 µM (inactive).

As to `Cc1cc(C)c(NC(=O)Cn2c(=O)n(CCC(=O)NCc3ccc4c(c3)OCO4)c(=O)c3sccc32)c(C)c1`, the half-maximal inhibitory concentration (IC50) is 12.6 µM.

Regarding `COc1ccc(-c2ccnc(-c3ccc(OCc4cccc(F)c4)cc3)n2)cc1`, the half-maximal inhibitory concentration (IC50) was 45.8 µM.

For `c1ccc2c(c1)ccc1nnc(-c3ccc4c(c3)OCO4)n12`, the IC50 is > 50 µM (inactive).

On to `C[C@]12C(=O)N(c3ccc(C(=O)NCc4ccc(F)cc4)cc3)C(=O)N1CCc1c2[nH]c2ccccc12`, for which the IC50 is > 50 µM (inactive).

`O=C(NCc1ccc(-c2nc3cnccc3o2)cc1)c1ccccc1F`: the IC50 was 20.5 µM.

With `CCn1c(CNc2ccc(Cl)cc2)nnc1SCC(=O)Nc1ccccc1`, the IC50 is > 50 µM (inactive).

`O=C(Cn1c(=O)n(CCCC(=O)N2CC=C(c3ccccc3)CC2)c(=O)c2ccccc21)NCCC1=CCCCC1`: the IC50 was > 50 µM (inactive).

For the molecule `Cc1cc(C(=O)Nc2ccc3nc(N4CCN(c5ncccn5)CC4)cc(C)c3c2)ccc1[N+](=O)[O-]`, the IC50 is > 50 µM (inactive).

For the molecule `COc1ccc(OC)c(C2CC(=O)Nc3n[nH]c(-c4ccccc4)c32)c1` (configuration not stated), the IC50 was 37.8 µM.

Consider `CN(C)c1cc(-n2cnc(C(=O)NCc3ccccc3Cl)c2)ncn1`, for which the IC50 is 30.4 µM.

In the case of `Cc1ccc(N=Cc2sc(O)c3ccccc23)c(C)c1`, the IC50 was > 50 µM (inactive).

In the case of `CCc1cc2cc3c(cc2nc1SCC(=O)Nc1cccc(C(C)=O)c1)OCO3`, the IC50 is 26.5 µM.

Regarding `CCN(CC)c1cc(C)c2cc(NC(=O)c3ccncc3)ccc2n1`, the IC50 was > 50 µM (inactive).

With `O=C(CSc1cn(Cc2ccccc2)c2ccccc12)Nc1ccc2c(c1)OCCO2`, the IC50 was > 50 µM (inactive).

Regarding `COc1ccc(OC)c(-c2c(C#N)c(C)nc3c2N2CCC3CC2)c1`, the IC50 was 25 µM.

As to `Cc1cc2nc(/C=C/c3ccccc3)n(Cc3cccc(F)c3)c2cc1C`, the IC50 was > 50 µM (inactive).

`Cc1nn(-c2ccc([N+](=O)[O-])cc2)c(C)c1-c1nc2ccccc2[nH]1`: the IC50 is 24.3 µM.

For the origin of these results see PubChem BioAssay AID1645868 (Buhrlage Lab, Dana-Farber Cancer Institute and Novartis …, 2021).
